Measurements from US10519211B2, “Compounds as peptidic GLP1/glucagon/GIP receptor agonists” (SANOFI, priority 2016, dated 2019).
Numbered stars: 1 amine (or outer) side, 2 acyl side, 3 side chain; on linkers, the order of the positions; unused ones are H or OH. Square brackets hold non-standard residues; d marks the D form. Side chains are listed from the residue outwards. Peptide text beside a SMILES is read from it. * marks the point of attachment. γGlu = O=C(O)[C@H](CCC(=O)[*:2])N[*:1]; Palmitoyl = CCCCCCCCCCCCCCCC(=O)*; Aib = CC(C)(N)C(=O)O

How the values were obtained:
[1] = Thioflavin T (ThT) assay for physical stability (fibrillation); type: physicochemical; conditions: 3 mg/ml, 100 mM acetate pH 4.5 with m-cresol, shaking at 37° C.
How it was run: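 Peptide at 3 mg/ml with 100 μM ThT in 100 mM acetate pH 4.5 with m-cresol, stressed at 37° C by cycles of 10 s shaking at 960 rpm and 50 s rest. Fluorescence read every 20 minutes, eight replicates; lag time in hours.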

[2] = system: female, diabetic db/db mice; assay: Acute effects after subcutaneous treatment on blood glucose in non-fasting diabetic db/db mice; type: in vivo, mouse
Procedure: Female healthy, lean BKS.Cg-(lean)/OlaHsd and diabetes-prone, obese BKS.Cg-+Lepr^db/+Lepr^db/OlaHsd mice were ordered group housed from Envigo RMS Inc., shipped group housed and remained group housed in shoebox caging with wood chip bedding until day 15 of the predose phase. At the study start mice were approximately 12 weeks old.
Mice were housed under vivarium conditions including a 12 h light/dark cycle (light phase 04:00 AM-4:00 PM), room temperatures between 23-26° C. and a relative humidity between 30-70%. All animals had free access to water and Purina Fomulab Diet 5008.
On predose day 9 blood glucose and body mass (approximately between 08:00-10:00 AM) as well as HbA1c measurements were performed. On day 15 of the predose phase animals were assigned to treatment groups (n=8) and to new cages to match mean HbA1c and body masses between all db/db groups. An age-matched lean group was included in the study as a healthy, lean reference.
Prior to day 1 of the dosing phase, the test article was diluted with Phosphate Buffered Saline (PBS, Gibco, without CaCl2 and MgCl2) to a concentration of 1 mg/mL and aliquots of this stock solution were stored at approximately −60° C. On day 1 of the dosing phase the stock aliquot was thawed and the injected test article solution was prepared fresh by diluting it with PBS to achieve the desired concentration.
On Day 1 of the dosing phase db/db mice were either treated once with a s.c. injection of PBS-vehicle or 30 μg/kg test article. The lean reference group was treated once with a s.c. injection of PBS-vehicle. The dosing was initiated and completed between 08:00 and 10:00 AM. The applied volume was 5 ml/kg and the dose was adjusted to the most recent body mass recording of each individual.
Animals had unlimited access to water and feed during the experiment. On day 1 of the dosing phase approximately 5 μL of blood were collected via tail clips at minute −30 and 0 prior to any other inlife activities. At minute 0 mice received a s.c. dose of either PBS-vehicle or 30 μg/kg test article. Further blood samples were harvested at hour 0.25, 0.5, 1, 1.5, 2, 3, 4, 6, 8, and 24 post-dose. Glucose measurements were performed in whole blood using AlphaTRAK glucometers. If the glucose concentrations of two measurements differed by more than 20 mg/dL a third value was recorded. The Area Under the Curve (AUC) for blood glucose was calculated via the trapezoid method and for the duration of the 24 post-dose hours.
Data are depicted as means±SEM. […] A One-Way ANOVA and Tukey Test were used for pairwise multiple comparisons of all groups (n=8/group, deviations from group size are indicated). […] Data from a Non-Diabetic-Vehicle group serve as a reference dataset for the normoglycemic, lean state.
Female, 12 weeks old, healthy, lean BKS.Cg-(lean)/OlaHsd or diabetes-prone, obese BKS.Cg-+Leprdb/+Leprdb/OlaHsd mice were treated once with a s.c. injection of PBS, 30 μg/kg SEQ ID NO: 6 or 30 μg/kg SEQ ID NO: 7. The dosing was initiated and completed between 08:00 and 10:00 AM. The applied volume was 5 ml/kg and the dose was adjusted to the most recent body mass recording of each individual. Diabetic db/db mice were HbA1c- and body mass-matched. The lean reference group was treated once with a s.c. injection of PBS-vehicle.
Animals had unlimited access to water and feed during the experiment. On day 1 of the dosing phase approximately 5 μL of blood were collected via tail clips at minute −30 and 0 prior to any other inlife activities. At minute 0 mice received a s.c. dose of either PBS-vehicle, 30 μg/kg SEQ ID NO: 6 or SEQ ID NO: 7. Further blood samples were harvested at minute 15, 30, 60, 90, 120, 150, 180, 240, 360, and 480 post-dose. Glucose measurements were performed in whole blood using AlphaTRAK glucometers. If the glucose concentrations of two measurements differed by more than 20 mg/dL a third value was recorded. […]

[3] = Chemical stability assessment (UPLC-UV, relative purity loss); type: physicochemical; conditions: 1 mg/ml, 25 mM acetate buffer pH 4.5 with m-cresol (buffer system A)
How it was run: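 Peptide at 1 mg/mL (purity-corrected) in 25 mM acetate pH 4.5 with methionine, m-cresol and glycerol, sterile-filtered, stored 28 days at 40° C. Purity measured by UPLC-UV as peptide peak area fraction at start and after storage; value is relative percent purity loss.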

Row | Compound | Lag time before increase [1] | Blood glucose AUC compared to the Diabetic-Vehicle group ([2]; 30 μg/kg s.c. once, 24 h, in words) | Time post dose at which lowest blood glucose levels were reached ([2]; 30 μg/kg s.c. once, fed db/db mice) | Blood glucose profile following single treatment ([2]; 30 μg/kg s.c. once, fed db/db mice, in words) | Plasma glucose area under the curve (mmol/L in 24 h) ([2]; Table 10, once 30 μg/kg s.c., fed db/db mice, mean ± SEM) | Chemical stability [relative purity loss 28 days 40° C.] (%) at pH 4.5 [3]
1 | CCCCCCCCCCCCCCCC(=O)N[C@@H](CCC(=O)N[C@@H](CCC(=O)NCCCC[C@H](NC(=O)[C@H](CC(C)C)NC(=O)[C@H](CCCCN)NC(=O)[C@H](CO)NC(=O)[C@H](CC(C)C)NC(=O)[C@H](CC(=O)O)NC(=O)[C@H](CO)NC(=O)[C@@H](NC(=O)[C@H](Cc1ccccc1)NC(=O)[C@@H](NC(=O)CNC(=O)[C@H](CCC(N)=O)NC(=O)C(C)(C)NC(=O)[C@@H](N)Cc1c[nH]cn1)[C@@H](C)O)[C@@H](C)O)C(=O)N[C@@H](CCC(=O)O)C(=O)N[C@@H](CCCCN)C(=O)N[C@@H](CCC(N)=O)C(=O)N[C@@H](CCCNC(=N)N)C(=O)N[C@@H](CCC(N)=O)C(=O)NC(C)(C)C(=O)N[C@@H](CCC(=O)O)C(=O)N[C@@H](Cc1ccccc1)C(=O)N[C@H](C(=O)N[C@@H](CCC(=O)O)C(=O)N[C@@H](Cc1c[nH]c2ccccc12)C(=O)N[C@@H](CC(C)C)C(=O)N[C@@H](CCCCN)C(=O)N[C@@H](C)C(=O)NCC(=O)NCC(=O)N1CCC[C@H]1C(=O)N1CCC[C@H]1C(=O)N[C@@H](CO)C(=O)NC(C)(C)C(=O)N[C@@H](CCCCN)C(=O)N1CCC[C@H]1C(=O)N1CCC[C@H]1C(=O)N1CCC[C@H]1C(=O)N[C@@H](CCCCN)C(N)=O)[C@@H](C)CC)C(=O)O)C(=O)O [SEQ ID NO: 6, H-Aib-Q-G-T-F-T-S-D-L-S-K-L-K[gGlu-gGlu-Palm]-E-K-Q-R-Q-Aib-E-F-I-E-W-L-K-A-G-G-P-P-S-Aib-K-P-P-P-K-NH2] | >45 h | statistically significant reduction in the blood glucose AUC | approximately 8 hours | acute decrease in blood glucose concentrations | +430.70 ± 26.41 mmol/L in 24 h | 6.9%
2 | CCCCCCCCCCCCCCCC(=O)N[C@@H](CCC(=O)N[C@@H](CCC(=O)NCCCC[C@H](NC(=O)[C@H](CC(C)C)NC(=O)[C@H](CCCCN)NC(=O)[C@H](CO)NC(=O)[C@H](CC(C)C)NC(=O)[C@H](CC(=O)O)NC(=O)[C@H](CO)NC(=O)[C@@H](NC(=O)[C@H](Cc1ccccc1)NC(=O)[C@@H](NC(=O)CNC(=O)[C@H](CCC(N)=O)NC(=O)C(C)(C)NC(=O)[C@@H](N)Cc1c[nH]cn1)[C@@H](C)O)[C@@H](C)O)C(=O)N[C@@H](CCC(=O)O)C(=O)N[C@@H](CCC(=O)O)C(=O)N[C@@H](CCC(N)=O)C(=O)N[C@@H](CCCNC(=N)N)C(=O)N[C@@H](CCC(N)=O)C(=O)NC(C)(C)C(=O)N[C@@H](CCC(=O)O)C(=O)N[C@@H](Cc1ccccc1)C(=O)N[C@H](C(=O)N[C@@H](CCC(=O)O)C(=O)N[C@@H](Cc1c[nH]c2ccccc12)C(=O)N[C@@H](CC(C)C)C(=O)N[C@@H](CCCCN)C(=O)N[C@@H](C)C(=O)NCC(=O)NCC(=O)N[C@@H](Cc1c[nH]cn1)C(=O)N1CCC[C@H]1C(=O)N[C@@H](CO)C(=O)NC(C)(C)C(=O)N[C@@H](CCCCN)C(=O)N1CCC[C@H]1C(=O)N1CCC[C@H]1C(=O)N1CCC[C@H]1C(=O)N[C@@H](CCCCN)C(N)=O)[C@@H](C)CC)C(=O)O)C(=O)O [SEQ ID NO: 8, H-Aib-Q-G-T-F-T-S-D-L-S-K-L-K[gGlu-gGlu-Palm]-E-E-Q-R-Q-Aib-E-F-I-E-W-L-K-A-G-G-H-P-S-Aib-K-P-P-P-K-NH2] | >45 h | – | – | – | – | 7.6%
3 | CCCCCCCCCCCCCCCC(=O)N[C@@H](CCC(=O)N[C@@H](CCC(=O)NCCCC[C@H](NC(=O)[C@H](CC(C)C)NC(=O)[C@H](CCCCN)NC(=O)[C@H](CO)NC(=O)[C@H](CC(C)C)NC(=O)[C@H](CC(=O)O)NC(=O)[C@H](CO)NC(=O)[C@@H](NC(=O)[C@H](Cc1ccccc1)NC(=O)[C@@H](NC(=O)CNC(=O)[C@H](CCC(N)=O)NC(=O)C(C)(C)NC(=O)[C@@H](N)Cc1c[nH]cn1)[C@@H](C)O)[C@@H](C)O)C(=O)N[C@@H](CCC(=O)O)C(=O)N[C@@H](CCC(=O)O)C(=O)N[C@@H](CCC(N)=O)C(=O)N[C@@H](CCCNC(=N)N)C(=O)N[C@@H](CCC(N)=O)C(=O)NC(C)(C)C(=O)N[C@@H](CCC(=O)O)C(=O)N[C@@H](Cc1ccccc1)C(=O)N[C@H](C(=O)N[C@@H](CCC(=O)O)C(=O)N[C@@H](Cc1c[nH]c2ccccc12)C(=O)N[C@@H](CC(C)C)C(=O)N[C@@H](CCCCN)C(=O)N[C@@H](C)C(=O)NCC(=O)NCC(=O)N1CCC[C@H]1C(=O)N1CCC[C@H]1C(=O)N[C@@H](CO)C(=O)NC(C)(C)C(=O)N[C@@H](CCCCN)C(=O)N1CCC[C@H]1C(=O)N1CCC[C@H]1C(=O)N1CCC[C@H]1C(=O)N[C@@H](CCCCN)C(N)=O)[C@@H](C)CC)C(=O)O)C(=O)O [SEQ ID NO: 9, H-Aib-Q-G-T-F-T-S-D-L-S-K-L-K[gGlu-gGlu-Palm]-E-E-Q-R-Q-Aib-E-F-I-E-W-L-K-A-G-G-P-P-S-Aib-K-P-P-P-K-NH2] | >45 h | – | – | – | – | 8.7%
4 | CCCCCCCCCCCCCCCC(=O)N[C@@H](CCC(=O)N[C@@H](CCC(=O)NCCCC[C@H](NC(=O)[C@H](CC(C)C)NC(=O)[C@H](CCCCN)NC(=O)[C@H](CO)NC(=O)[C@H](CC(C)C)NC(=O)[C@H](CC(=O)O)NC(=O)[C@H](CO)NC(=O)[C@@H](NC(=O)[C@H](Cc1ccccc1)NC(=O)[C@@H](NC(=O)CNC(=O)[C@H](CCC(N)=O)NC(=O)C(C)(C)NC(=O)[C@@H](N)Cc1c[nH]cn1)[C@@H](C)O)[C@@H](C)O)C(=O)N[C@@H](CCC(=O)O)C(=O)N[C@@H](CCC(=O)O)C(=O)N[C@@H](CCC(N)=O)C(=O)N[C@@H](CCCNC(=N)N)C(=O)N[C@@H](CCC(N)=O)C(=O)NC(C)(C)C(=O)N[C@@H](CCC(=O)O)C(=O)N[C@@H](Cc1ccccc1)C(=O)N[C@H](C(=O)N[C@@H](CCC(=O)O)C(=O)N[C@@H](Cc1c[nH]c2ccccc12)C(=O)N[C@@H](CC(C)C)C(=O)N[C@@H](CCCCN)C(=O)N[C@@H](C)C(=O)N[C@H](C)C(=O)NCC(=O)N1CCC[C@H]1C(=O)N1CCC[C@H]1C(=O)N[C@@H](CO)C(=O)NC(C)(C)C(=O)N[C@@H](CCCCN)C(=O)N1CCC[C@H]1C(=O)N1CCC[C@H]1C(=O)N1CCC[C@H]1C(=O)N[C@@H](CCCCN)C(N)=O)[C@@H](C)CC)C(=O)O)C(=O)O [SEQ ID NO: 10, H-Aib-Q-G-T-F-T-S-D-L-S-K-L-K[gGlu-gGlu-Palm]-E-E-Q-R-Q-Aib-E-F-I-E-W-L-K-A-dAla-G-P-P-S-Aib-K-P-P-P-K-NH2] (H-H[Aib]QGTFTSDLSKLK([γGlu-γGlu-Palmitoyl])EEQRQ[Aib]EFIEWLKA[dA]GPPS[Aib]KPPPK-NH2) | >45 h | – | – | – | – | 7.4%
